In patent publication EP0674651B1, “SUBSTITUTED 6-AZAANDROSTENONES” (priority 1992, dated 1994):

Assays:
[1] = molecular target: T1, bovine adrenal 3β-hydroxy-Δ^5-steroid dehydrogenase / 3-keto-Δ^5-steroid isomerase (3βHSD) (Bos taurus, UniProt P14893); details: cited from earlier work
T1 construct: host or cells: bovine adrenal
T1 sequence (P14893 1-373): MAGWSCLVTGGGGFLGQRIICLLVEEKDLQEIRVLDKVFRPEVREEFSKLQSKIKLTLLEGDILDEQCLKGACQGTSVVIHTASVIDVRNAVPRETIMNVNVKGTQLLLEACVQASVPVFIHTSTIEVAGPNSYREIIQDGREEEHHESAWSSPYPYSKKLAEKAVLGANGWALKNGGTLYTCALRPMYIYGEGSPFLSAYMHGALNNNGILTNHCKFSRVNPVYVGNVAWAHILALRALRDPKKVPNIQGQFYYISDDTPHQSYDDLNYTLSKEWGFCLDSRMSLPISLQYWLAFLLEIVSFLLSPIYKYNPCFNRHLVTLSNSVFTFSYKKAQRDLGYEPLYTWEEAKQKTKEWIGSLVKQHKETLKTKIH

[2] = molecular target: T2, porcine granulosa cell 3β-hydroxy-Δ^5-steroid dehydrogenase / 3-keto-Δ^5-steroid isomerase (3βHSD) (Sus scrofa, UniProt Q9N119); details: cited from earlier work
T2 construct: host or cells: porcine granulosa cells
T2 sequence (Q9N119 1-373): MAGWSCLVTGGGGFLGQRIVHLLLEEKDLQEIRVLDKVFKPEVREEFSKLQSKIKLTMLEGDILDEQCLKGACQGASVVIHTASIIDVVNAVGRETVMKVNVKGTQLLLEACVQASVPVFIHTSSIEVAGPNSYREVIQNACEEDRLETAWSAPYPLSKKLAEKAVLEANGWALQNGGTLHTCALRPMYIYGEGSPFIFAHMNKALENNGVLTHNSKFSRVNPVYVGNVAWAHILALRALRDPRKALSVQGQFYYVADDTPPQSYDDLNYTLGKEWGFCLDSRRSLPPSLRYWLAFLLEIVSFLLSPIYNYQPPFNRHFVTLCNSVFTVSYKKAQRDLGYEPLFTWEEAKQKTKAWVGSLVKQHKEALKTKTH

[3] = literature reports; cited from earlier work
[4] = molecular target: T3, human type 1 5α-reductase (Homo sapiens, UniProt P18405); test: 5α-reductase in vitro inhibitory activity, human type 1
T3 sequence (P18405 1-259): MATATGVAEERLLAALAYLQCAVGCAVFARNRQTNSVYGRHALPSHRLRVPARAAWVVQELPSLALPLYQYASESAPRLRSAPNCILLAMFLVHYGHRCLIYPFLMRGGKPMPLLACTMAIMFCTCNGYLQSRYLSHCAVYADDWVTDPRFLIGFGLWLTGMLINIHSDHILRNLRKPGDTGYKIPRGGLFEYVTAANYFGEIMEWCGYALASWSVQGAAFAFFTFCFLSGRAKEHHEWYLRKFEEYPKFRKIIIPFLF

[5] = molecular target: T4, human type 2 5α-reductase (Homo sapiens, UniProt P31213); test: 5α-reductase in vitro inhibitory activity, human type 2
T4 sequence (P31213 1-254): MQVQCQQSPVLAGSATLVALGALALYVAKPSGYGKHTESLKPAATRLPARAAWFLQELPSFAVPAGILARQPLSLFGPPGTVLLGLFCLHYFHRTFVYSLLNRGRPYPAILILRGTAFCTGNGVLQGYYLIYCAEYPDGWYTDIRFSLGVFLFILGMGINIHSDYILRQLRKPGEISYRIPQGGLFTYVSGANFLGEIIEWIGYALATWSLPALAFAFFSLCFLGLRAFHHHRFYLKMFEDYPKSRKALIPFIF
Protocol: Microsomes were prepared by homogenization of the tissue or cells, followed by differential centrifugation of the homogenate. […] Corresponding incubations were carried out with no test compound as a control study.
The percentage of conversion of testosterone to DHT in the presence of test compounds compared to the corresponding conversion in the control study was estimated using high pressure liquid chromatography (HPLC) with radiochemical detection.

[6] = molecular target: Rat Prostatic 5α-reductase; test: 5α-reductase in vitro inhibitory activity, rat prostatic; details: read-out: IC50 Rat Prostatic; microsomes derived from prostate tissue from the rat

Q: What does the source list for `CCN(CC)C(=O)[C@H]1CC[C@H]2[C@@H]3CC[C@H]4N(C)C(=O)CC[C@]4(C)[C@H]3CC[C@]12C` [Compound 4-MA]?
A: inhibition of 3βHSD [1]: potent inhibition; inhibition of 3βHSD [2]: potent inhibition; hepatotoxicity [3]: hepatotoxicity

Q: Which IC50 [4] does the source give for `C[C@]12CC[C@H]3[C@@H](CNC4=CC(=O)CC[C@@]43C)[C@@H]1CC[C@@H]2C(=O)Nc1cc(C(F)(F)F)ccc1C(F)(F)F` [Compound 50, 17β-N-(2,5-Ditrifluoromethyl)phenyl-carbamoyl-6-azaandrost-4-en-3-one] here?
A: The IC50 was < 10 nM.

Q: And the IC50 [5]?
A: Its IC50 is < 10 nM.

Q: What about the IC50 [6] of the same molecule?
A: Its IC50 is 10 to 100 nM.

Q: With `CC(C)(C)C1CCC(NC(=O)[C@H]2CC[C@H]3[C@@H]4CNC5=CC(=O)CC[C@]5(C)[C@H]4CC[C@]23C)CC1` (stereo partly drawn) [Compound 51, 17β-N-(4-t-Butyl)cyclohexyl-carbamoyl-6-azaandrost-4-en-3-one] as the molecule, how does the IC50 [4] read?
A: The IC50 was > 100 nM.

Q: And the IC50 [5]?
A: Its IC50 is 10 to 100 nM.

Q: And the IC50 [6]?
A: The IC50 was > 100 nM.

Q: With `C[C@]12CC[C@H]3[C@@H](CNC4=CC(=O)CC[C@@]43C)[C@@H]1CC[C@@H]2C(=O)Nc1ccccc1Br` [Compound 52, 17β-N-(2-Bromo)phenyl-carbamoyl-6-azaandrost-4-en-3-one] as the molecule, how does the IC50 [4] read?
A: Its IC50 is 10 to 100 nM.

Q: What about the IC50 [5] of the same molecule?
A: Its IC50 is < 10 nM.

Q: What about the IC50 [6] of the same molecule?
A: Its IC50 is 10 to 100 nM.

Q: Which IC50 [4] does the source give for `C[C@]12CC[C@H]3[C@@H](CNC4=CC(=O)CC[C@@]43C)[C@@H]1CC[C@@H]2C(=O)Nc1ccccc1-c1ccccc1` [Compound 53, 17β-N-(2-Phenyl)phenyl-carbamoyl-6-azaandrost-4-en-3-one] here?
A: The IC50 was 10 to 100 nM.

Q: And the IC50 [5]?
A: The IC50 was < 10 nM.

Q: And the IC50 [6]?
A: Its IC50 is < 10 nM.

Q: For `CC(C)c1cccc(C(C)C)c1NC(=O)[C@H]1CC[C@H]2[C@@H]3CNC4=CC(=O)C=C[C@]4(C)[C@H]3CC[C@]12C` [Compound 93, 17β-N-(2,6-Di-i-propyl)phenyl-carbamoyl-6-azaandrost-1,4-dien-3-one], which IC50 [4] is on record?
A: The IC50 was 10 to 100 nM.

Q: What about the IC50 [5] of the same molecule?
A: Its IC50 is < 10 nM.

Q: And the IC50 [6]?
A: Its IC50 is > 100 nM.
